In ChEMBL document CHEMBL5346973 (J Med Chem, 2023):
pIC50: −log10 of the molar value. Where a SMILES comes first, the peptide text is derived from it.

What was measured:
[1] = target: Nicotinic acetylcholine receptor alpha9/alpha10 (Rattus norvegicus, UniProt P43144+Q9JLB5); test: Antagonist activity at rat alpha9alpha10 nACh receptor expressed in Xenopus oocyte assessed as inhibition of acetylcholine-induced response at -70 mV holding potential by voltage-clamp based electrophysiological assay; assay type: cell-based
[2] = target: Neuronal acetylcholine receptor subunit alpha-7 (Rattus norvegicus, UniProt Q05941); test: Antagonist activity at rat alpha7 nACh receptor expressed in Xenopus oocyte assessed as inhibition of acetylcholine-induced response at -70 mV holding potential by voltage-clamp based electrophysiological assay; assay type: cell-based
Chain of Neuronal acetylcholine receptor subunit alpha-7 (Q05941 whole entry): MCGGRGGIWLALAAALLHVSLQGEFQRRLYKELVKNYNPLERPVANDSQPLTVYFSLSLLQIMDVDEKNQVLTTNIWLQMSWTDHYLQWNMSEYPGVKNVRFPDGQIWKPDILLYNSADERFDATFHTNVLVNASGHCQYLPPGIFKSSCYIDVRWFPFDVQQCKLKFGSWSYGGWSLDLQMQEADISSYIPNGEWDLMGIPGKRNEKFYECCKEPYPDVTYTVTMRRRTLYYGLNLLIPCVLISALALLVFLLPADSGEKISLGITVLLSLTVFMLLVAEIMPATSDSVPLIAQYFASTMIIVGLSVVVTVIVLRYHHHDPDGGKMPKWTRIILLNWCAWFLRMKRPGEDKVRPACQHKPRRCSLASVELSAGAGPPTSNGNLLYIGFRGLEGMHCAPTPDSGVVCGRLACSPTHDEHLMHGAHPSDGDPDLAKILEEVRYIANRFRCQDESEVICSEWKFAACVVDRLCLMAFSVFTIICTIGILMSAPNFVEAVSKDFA

Chain of Nicotinic acetylcholine receptor alpha9/alpha10 (P43144 whole entry): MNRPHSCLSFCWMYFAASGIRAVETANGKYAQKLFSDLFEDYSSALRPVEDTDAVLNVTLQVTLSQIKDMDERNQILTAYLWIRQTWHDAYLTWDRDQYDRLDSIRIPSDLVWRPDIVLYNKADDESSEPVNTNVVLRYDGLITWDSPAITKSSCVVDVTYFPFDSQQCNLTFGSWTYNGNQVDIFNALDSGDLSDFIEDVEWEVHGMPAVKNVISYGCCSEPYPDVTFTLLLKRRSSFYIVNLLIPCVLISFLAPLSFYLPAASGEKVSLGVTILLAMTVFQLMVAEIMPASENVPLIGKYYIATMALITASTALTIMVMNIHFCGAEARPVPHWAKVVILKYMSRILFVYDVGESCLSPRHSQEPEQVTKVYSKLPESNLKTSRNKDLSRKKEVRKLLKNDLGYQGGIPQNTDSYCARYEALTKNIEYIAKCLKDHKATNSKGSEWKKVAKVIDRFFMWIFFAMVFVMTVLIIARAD
Chain of Nicotinic acetylcholine receptor alpha9/alpha10 (Q9JLB5 whole entry): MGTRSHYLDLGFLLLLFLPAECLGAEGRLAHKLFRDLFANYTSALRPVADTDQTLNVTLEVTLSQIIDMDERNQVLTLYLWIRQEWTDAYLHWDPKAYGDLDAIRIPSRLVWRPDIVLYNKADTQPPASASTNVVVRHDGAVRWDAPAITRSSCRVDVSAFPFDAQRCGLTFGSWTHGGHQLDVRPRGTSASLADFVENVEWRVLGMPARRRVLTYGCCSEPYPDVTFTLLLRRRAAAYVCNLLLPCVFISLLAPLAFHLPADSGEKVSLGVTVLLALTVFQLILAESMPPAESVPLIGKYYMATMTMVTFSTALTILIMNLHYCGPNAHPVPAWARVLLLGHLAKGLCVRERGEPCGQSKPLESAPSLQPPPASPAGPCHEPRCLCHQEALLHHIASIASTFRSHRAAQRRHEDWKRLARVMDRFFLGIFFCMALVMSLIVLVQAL

Compound `CC[C@H](C)[C@@H]1NC(=O)[C@H](CCCNC(=N)N)NC(=O)[C@H](CCCNC(=N)N)NC(=O)[C@@H]2CSSC[C@H](NC(=O)[C@H](Cc3ccc(O)cc3)NC(=O)[C@H](CCCNC(=N)N)NC(=O)CNC(=O)[C@H](C)NC(=O)[C@H](CO)NC(=O)[C@H](CCCNC(=N)N)NC(=O)[C@@H](NC(=O)[C@@H](N)[C@@H](C)O)CSSC[C@@H](C(=O)N[C@H](C(=O)O)C(C)C)NC(=O)[C@H](C)NC(=O)[C@H](CC(=O)O)NC(=O)[C@H]([C@@H](C)O)NC1=O)C(=O)N[C@@H](CCCNC(=N)N)C(=O)N[C@@H](CO)C(=O)N1CCC[C@H]1C(=O)N[C@@H](Cc1ccc(O)cc1)C(=O)N[C@@H](CC(=O)O)C(=O)N[C@@H](CCCNC(=N)N)C(=O)N[C@@H](CCCNC(=N)N)C(=O)N[C@@H](CCCNC(=N)N)C(=O)N[C@@H](CCCNC(=N)N)C(=O)N[C@@H](Cc1ccc(O)cc1)C(=O)N2` (HELM PEPTIDE1{T.C.R.S.A.G.R.Y.C.R.S.P.Y.D.R.R.R.R.Y.C.R.R.I.T.D.A.C.V}$PEPTIDE1,PEPTIDE1,2:R3-27:R3|PEPTIDE1,PEPTIDE1,9:R3-20:R3$$$V2.0) has a pIC50 [1] of 7.22 and a pIC50 [2] of 5.20.
With `CC[C@H](C)[C@@H]1NC(=O)[C@H](CCCNC(=N)N)NC(=O)[C@H](CCCNC(=N)N)NC(=O)[C@@H]2CSSC[C@H](NC(=O)[C@H](Cc3ccc(O)cc3)NC(=O)[C@H](CCCNC(=N)N)NC(=O)CNC(=O)[C@H](CO)NC(=O)[C@H](CO)NC(=O)[C@H](CCCNC(=N)N)NC(=O)[C@@H](NC(=O)[C@@H](N)[C@@H](C)O)CSSC[C@@H](C(=O)N[C@H](C(=O)O)C(C)C)NC(=O)[C@H](C)NC(=O)[C@H](CC(=O)O)NC(=O)[C@H]([C@@H](C)O)NC1=O)C(=O)N[C@@H](CCCNC(=N)N)C(=O)N[C@@H](CO)C(=O)N1CCC[C@H]1C(=O)N[C@@H](Cc1ccc(O)cc1)C(=O)N[C@@H](C)C(=O)N[C@@H](CCCNC(=N)N)C(=O)N[C@@H](CCCNC(=N)N)C(=O)N[C@@H](CCCNC(=N)N)C(=O)N[C@@H](CCCNC(=N)N)C(=O)N[C@@H](Cc1ccc(O)cc1)C(=O)N2` (HELM PEPTIDE1{T.C.R.S.S.G.R.Y.C.R.S.P.Y.A.R.R.R.R.Y.C.R.R.I.T.D.A.C.V}$PEPTIDE1,PEPTIDE1,2:R3-27:R3|PEPTIDE1,PEPTIDE1,9:R3-20:R3$$$V2.0) the pIC50 [1] was 8.33 and the pIC50 [2] was 5.12.
`CC[C@H](C)[C@@H]1NC(=O)[C@H](CCCNC(=N)N)NC(=O)[C@H](CCCNC(=N)N)NC(=O)[C@@H](NC(=O)[C@H](Cc2ccc(O)cc2)NC(=O)[C@H](CCCNC(=N)N)NC(=O)[C@H](CCCNC(=N)N)NC(=O)[C@H](CCCNC(=N)N)NC(=O)[C@H](C)NC(=O)[C@H](CC(=O)O)NC(=O)[C@H](Cc2ccc(O)cc2)NC(=O)[C@@H]2CCCN2C(=O)[C@H](CO)NC(=O)[C@H](CCCNC(=N)N)NC(=O)[C@@H]2CSSC[C@H](NC(=O)[C@H](N)[C@H](C)O)C(=O)N[C@@H](CCCNC(=N)N)C(=O)N[C@@H](CO)C(=O)N[C@@H](CO)C(=O)NCC(=O)N[C@@H](CCCNC(=N)N)C(=O)N[C@@H](Cc3ccc(O)cc3)C(=O)N2)CSSC[C@@H](C(=O)N[C@H](C(=O)O)C(C)C)NC(=O)[C@H](C)NC(=O)[C@H](CC(=O)O)NC(=O)[C@H]([C@@H](C)O)NC1=O` was tested, and the pIC50 [1] was 7.49 and the pIC50 [2] was 5.48.
In the case of `CC[C@H](C)[C@@H]1NC(=O)[C@H](CCCNC(=N)N)NC(=O)[C@H](CCCNC(=N)N)NC(=O)[C@@H]2CSSC[C@H](NC(=O)[C@H](Cc3ccc(O)cc3)NC(=O)[C@H](CCCNC(=N)N)NC(=O)CNC(=O)[C@H](CO)NC(=O)[C@H](C)NC(=O)[C@H](CCCNC(=N)N)NC(=O)[C@@H](NC(=O)[C@@H](N)[C@@H](C)O)CSSC[C@@H](C(=O)N[C@H](C(=O)O)C(C)C)NC(=O)[C@H](C)NC(=O)[C@H](CC(=O)O)NC(=O)[C@H]([C@@H](C)O)NC1=O)C(=O)N[C@@H](CCCNC(=N)N)C(=O)N[C@@H](CO)C(=O)N1CCC[C@H]1C(=O)N[C@@H](Cc1ccc(O)cc1)C(=O)N[C@@H](CC(=O)O)C(=O)N[C@@H](CCCNC(=N)N)C(=O)N[C@@H](CCCNC(=N)N)C(=O)N[C@@H](CCCNC(=N)N)C(=O)N[C@@H](CCCNC(=N)N)C(=O)N[C@@H](Cc1ccc(O)cc1)C(=O)N2`, the pIC50 [1] was 7.77 and the pIC50 [2] was 5.39.
`CC[C@H](C)[C@@H]1NC(=O)[C@H](CCCNC(=N)N)NC(=O)[C@H](CCCNC(=N)N)NC(=O)[C@@H](NC(=O)[C@H](Cc2ccc(O)cc2)NC(=O)[C@H](CCCNC(=N)N)NC(=O)[C@H](CCCNC(=N)N)NC(=O)[C@H](CCCNC(=N)N)NC(=O)[C@H](CCCNC(=N)N)NC(=O)[C@H](CC(=O)O)NC(=O)[C@H](Cc2ccc(O)cc2)NC(=O)[C@@H]2CCCN2C(=O)[C@H](CO)NC(=O)[C@H](CCCNC(=N)N)NC(=O)[C@@H]2CSSC[C@H](NC(=O)[C@@H](N)[C@@H](C)O)C(=O)N[C@@H](CCCNC(=N)N)C(=O)N[C@@H](CO)C(=O)N[C@@H](C)C(=O)NCC(=O)N[C@@H](CCCNC(=N)N)C(=O)N[C@@H](Cc3ccc(O)cc3)C(=O)N2)CSSC[C@@H](C(=O)N[C@H](C(=O)O)C(C)C)NC(=O)[C@H](C)NC(=O)[C@H](CC(=O)O)NC(=O)[C@H]([C@@H](C)O)NC1=O` (HELM PEPTIDE1{T.C.R.S.A.G.R.Y.C.R.S.P.Y.D.R.R.R.R.Y.C.R.R.I.T.D.A.C.V}$PEPTIDE1,PEPTIDE1,2:R3-9:R3|PEPTIDE1,PEPTIDE1,20:R3-27:R3$$$V2.0) gave a pIC50 [1] of 7.57 and a pIC50 [2] of 5.84.
Work on `CC[C@H](C)[C@@H]1NC(=O)[C@H](CCCNC(=N)N)NC(=O)[C@H](CCCNC(=N)N)NC(=O)[C@@H](NC(=O)[C@H](Cc2ccc(O)cc2)NC(=O)[C@H](CCCNC(=N)N)NC(=O)[C@H](CCCNC(=N)N)NC(=O)[C@H](CCCNC(=N)N)NC(=O)[C@H](CCCNC(=N)N)NC(=O)[C@H](CC(=O)O)NC(=O)[C@H](Cc2ccc(O)cc2)NC(=O)[C@@H]2CCCN2C(=O)[C@H](C)NC(=O)[C@H](CCCNC(=N)N)NC(=O)[C@@H]2CSSC[C@H](NC(=O)[C@@H](N)[C@@H](C)O)C(=O)N[C@@H](CCCNC(=N)N)C(=O)N[C@@H](CO)C(=O)N[C@@H](CO)C(=O)NCC(=O)N[C@@H](CCCNC(=N)N)C(=O)N[C@@H](Cc3ccc(O)cc3)C(=O)N2)CSSC[C@@H](C(=O)N[C@H](C(=O)O)C(C)C)NC(=O)[C@H](C)NC(=O)[C@H](CC(=O)O)NC(=O)[C@H]([C@@H](C)O)NC1=O` (HELM PEPTIDE1{T.C.R.S.S.G.R.Y.C.R.A.P.Y.D.R.R.R.R.Y.C.R.R.I.T.D.A.C.V}$PEPTIDE1,PEPTIDE1,2:R3-9:R3|PEPTIDE1,PEPTIDE1,20:R3-27:R3$$$V2.0) yielded a pIC50 [1] of 7.59 and a pIC50 [2] of 5.69.
With `CC[C@H](C)[C@@H]1NC(=O)[C@H](C)NC(=O)[C@H](CCCNC(=N)N)NC(=O)[C@@H]2CSSC[C@H](NC(=O)[C@H](Cc3ccc(O)cc3)NC(=O)[C@H](CCCNC(=N)N)NC(=O)CNC(=O)[C@H](CO)NC(=O)[C@H](CO)NC(=O)[C@H](CCCNC(=N)N)NC(=O)[C@@H](NC(=O)[C@@H](N)[C@@H](C)O)CSSC[C@@H](C(=O)N[C@H](C(=O)O)C(C)C)NC(=O)[C@H](C)NC(=O)[C@H](CC(=O)O)NC(=O)[C@H]([C@@H](C)O)NC1=O)C(=O)N[C@@H](CCCNC(=N)N)C(=O)N[C@@H](CO)C(=O)N1CCC[C@H]1C(=O)N[C@@H](Cc1ccc(O)cc1)C(=O)N[C@@H](CC(=O)O)C(=O)N[C@@H](CCCNC(=N)N)C(=O)N[C@@H](CCCNC(=N)N)C(=O)N[C@@H](CCCNC(=N)N)C(=O)N[C@@H](CCCNC(=N)N)C(=O)N[C@@H](Cc1ccc(O)cc1)C(=O)N2` the pIC50 [1] was 6.73 and the pIC50 [2] was < 5.00.
`CC[C@H](C)[C@@H]1NC(=O)[C@H](CCCNC(=N)N)NC(=O)[C@H](CCCNC(=N)N)NC(=O)[C@@H]2CSSC[C@H](NC(=O)[C@H](C)NC(=O)[C@H](CCCNC(=N)N)NC(=O)CNC(=O)[C@H](CO)NC(=O)[C@H](CO)NC(=O)[C@H](CCCNC(=N)N)NC(=O)[C@@H](NC(=O)[C@@H](N)[C@@H](C)O)CSSC[C@@H](C(=O)N[C@H](C(=O)O)C(C)C)NC(=O)[C@H](C)NC(=O)[C@H](CC(=O)O)NC(=O)[C@H]([C@@H](C)O)NC1=O)C(=O)N[C@@H](CCCNC(=N)N)C(=O)N[C@@H](CO)C(=O)N1CCC[C@H]1C(=O)N[C@@H](Cc1ccc(O)cc1)C(=O)N[C@@H](CC(=O)O)C(=O)N[C@@H](CCCNC(=N)N)C(=O)N[C@@H](CCCNC(=N)N)C(=O)N[C@@H](CCCNC(=N)N)C(=O)N[C@@H](CCCNC(=N)N)C(=O)N[C@@H](Cc1ccc(O)cc1)C(=O)N2` (HELM PEPTIDE1{T.C.R.S.S.G.R.A.C.R.S.P.Y.D.R.R.R.R.Y.C.R.R.I.T.D.A.C.V}$PEPTIDE1,PEPTIDE1,2:R3-27:R3|PEPTIDE1,PEPTIDE1,9:R3-20:R3$$$V2.0) was tested, and the pIC50 [1] was 6.92 and the pIC50 [2] was 5.13.
Compound `CC[C@H](C)[C@@H]1NC(=O)[C@H](CCCNC(=N)N)NC(=O)[C@H](CCCNC(=N)N)NC(=O)[C@@H](NC(=O)[C@H](Cc2ccc(O)cc2)NC(=O)[C@H](CCCNC(=N)N)NC(=O)[C@H](CCCNC(=N)N)NC(=O)[C@H](CCCNC(=N)N)NC(=O)[C@H](CCCNC(=N)N)NC(=O)[C@H](CC(=O)O)NC(=O)[C@H](Cc2ccc(O)cc2)NC(=O)[C@@H]2CCCN2C(=O)[C@H](CO)NC(=O)[C@H](CCCNC(=N)N)NC(=O)[C@@H]2CSSC[C@H](NC(=O)[C@@H](N)[C@@H](C)O)C(=O)N[C@@H](CCCNC(=N)N)C(=O)N[C@@H](CO)C(=O)N[C@@H](CO)C(=O)NCC(=O)N[C@@H](CCCNC(=N)N)C(=O)N[C@@H](Cc3ccc(O)cc3)C(=O)N2)CSSC[C@@H](C(=O)N[C@H](C(=O)O)C(C)C)NC(=O)[C@H](C)NC(=O)[C@@H](C)NC(=O)[C@H]([C@@H](C)O)NC1=O` has a pIC50 [1] of 7.89 and a pIC50 [2] of 5.17.
For `CC[C@H](C)[C@@H]1NC(=O)[C@H](CCCNC(=N)N)NC(=O)[C@H](CCCNC(=N)N)NC(=O)[C@@H]2CSSC[C@H](NC(=O)[C@H](Cc3ccc(O)cc3)NC(=O)[C@H](CCCNC(=N)N)NC(=O)CNC(=O)[C@H](CO)NC(=O)[C@H](CO)NC(=O)[C@H](CCCNC(=N)N)NC(=O)[C@@H](NC(=O)[C@@H](N)[C@@H](C)O)CSSC[C@@H](C(=O)N[C@H](C(=O)O)C(C)C)NC(=O)[C@H](C)NC(=O)[C@H](CC(=O)O)NC(=O)[C@H]([C@@H](C)O)NC1=O)C(=O)N[C@@H](CCCNC(=N)N)C(=O)N[C@@H](CO)C(=O)N1CCC[C@H]1C(=O)N[C@@H](Cc1ccc(O)cc1)C(=O)N[C@@H](CC(=O)O)C(=O)N[C@@H](CCCNC(=N)N)C(=O)N[C@@H](CCCNC(=N)N)C(=O)N[C@@H](CCCNC(=N)N)C(=O)N[C@@H](CCCNC(=N)N)C(=O)N[C@@H](C)C(=O)N2`, the pIC50 [1] was 7.42 and the pIC50 [2] was 5.12.
